Measurements reported in patent US20230113944A1, “COMPOSITIONS AND METHODS FOR THE TREATMENT OF NEURODEGENERATIVE DISEASES” (priority 2020, published 2023).
Entries after “also recorded” stand apart in the source; their conditions may differ. Where two headings read alike, the source gives them in different places.

What was measured:
human nSMase2 = molecular target: T1, human nSMase2 (Homo sapiens, UniProt Q9NY59); test: biochemical; type: biochemical
T1 construct: expressed in transfected cells; host or cells: HEK293T
T1 sequence (Q9NY59 1-655): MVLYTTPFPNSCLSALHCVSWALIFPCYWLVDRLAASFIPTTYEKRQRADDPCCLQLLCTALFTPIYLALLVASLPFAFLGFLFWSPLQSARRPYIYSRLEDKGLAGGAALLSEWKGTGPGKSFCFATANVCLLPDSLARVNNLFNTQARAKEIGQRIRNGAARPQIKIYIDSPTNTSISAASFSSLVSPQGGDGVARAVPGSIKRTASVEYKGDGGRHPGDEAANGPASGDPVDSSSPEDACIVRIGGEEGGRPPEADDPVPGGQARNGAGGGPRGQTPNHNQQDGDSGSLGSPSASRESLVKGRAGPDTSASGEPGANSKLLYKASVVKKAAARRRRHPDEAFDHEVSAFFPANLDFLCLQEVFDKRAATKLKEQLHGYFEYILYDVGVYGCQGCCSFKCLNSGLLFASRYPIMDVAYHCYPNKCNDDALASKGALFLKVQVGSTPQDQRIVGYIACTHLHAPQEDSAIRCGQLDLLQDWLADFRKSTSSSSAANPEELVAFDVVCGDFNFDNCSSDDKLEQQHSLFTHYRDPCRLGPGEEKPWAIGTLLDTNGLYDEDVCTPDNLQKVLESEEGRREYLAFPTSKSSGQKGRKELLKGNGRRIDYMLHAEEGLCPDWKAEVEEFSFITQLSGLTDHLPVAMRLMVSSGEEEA
Procedure: To evaluate nSMase2 inhibitory activity of tested compounds, cell lysates from HEK293T cells over-expressing human nSMase2 were used as the source of the nSMase2 enzyme. The Amplex Red Sphingomyelinase activity assay was performed according to previously a described protocol^1. Confluent cells were washed with PBS and harvested with lysis buffer [100 mM Tris-HCl pH 7.5, 100 mM sucrose, 100 μM PMSF, 1× protease inhibitor cocktail] using a cell scraper, and then sonicated 3 times on ice for 10 sec and centrifuged at 10,000×g for 10 min at 4° C. to remove remaining cell debris. An initial screening of a compound library was performed using 50 μM compound concentrations. In secondary testing, selected compounds were analyzed at multiple compound concentrations and plotted as a percentage of DMSO control; dose-response curves were generated to determine IC50s using GraphPad Prism software (GraphPad Software, La Jolla Calif.). […] Activity of the enzyme in the presence of the different concentrations of the inhibitors was plotted against substrate concentration and the maximal rate of the enzymatic reaction (Vmax) and Michaelis constant were calculated using GraphPad Prism.

[1] = molecular target: human serum albumin (HSA) (Homo sapiens, UniProt P02768); test: Binding to human serum albumin (HSA); conditions: for fraction unbound: human, human serum albumin
Chain of human serum albumin (HSA) (P02768 25-609): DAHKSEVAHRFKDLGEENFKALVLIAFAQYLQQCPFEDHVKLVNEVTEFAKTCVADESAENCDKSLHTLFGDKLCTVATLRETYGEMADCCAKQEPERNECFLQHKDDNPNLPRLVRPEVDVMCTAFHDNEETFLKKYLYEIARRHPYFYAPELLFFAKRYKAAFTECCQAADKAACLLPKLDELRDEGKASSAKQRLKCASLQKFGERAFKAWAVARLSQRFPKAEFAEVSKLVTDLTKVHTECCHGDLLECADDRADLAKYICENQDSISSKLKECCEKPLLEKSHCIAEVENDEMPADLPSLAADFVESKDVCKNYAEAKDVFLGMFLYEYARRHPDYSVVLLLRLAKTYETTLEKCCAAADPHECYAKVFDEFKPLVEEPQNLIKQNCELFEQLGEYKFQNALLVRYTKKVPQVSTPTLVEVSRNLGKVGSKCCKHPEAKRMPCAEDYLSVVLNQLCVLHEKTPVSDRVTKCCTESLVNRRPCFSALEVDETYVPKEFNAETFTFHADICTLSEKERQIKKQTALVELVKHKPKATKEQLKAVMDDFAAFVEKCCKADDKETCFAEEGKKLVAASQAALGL

[2] = Parallel artificial membrane permeability (IAM column) prediction of CNS permeability; type: in vitro ADME
Procedure: To predict the potential for brain permeability, a Regis Technologies analytical column connected to an Agilent HPLC system (Infinity 1260 quaternary pump and multiple wavelength detector; 1200 autosampler) was used. An IAM.PC.DD column was (4.6 mm i.d.×10 cm, particle size 5 μm; pore size 300 Å) conditioned with 20 column volumes of mobile phase or until a stable line was achieved. A mobile phase with a consistent flow rate of 1 mL/min was used comprising 100 mM Na2PO4 (solvent A) and acetonitrile (solvent B); compounds were eluted using a gradient (min/% B: 0/30, 10/60, 11/30, 15/30). Detector settings were 220, 250 and 280 nm and acquisition time was 15 min. The autosampler injected 10 μL of compound at 2 mM final, diluted from 10 mM in DMSO in 70:30 (water:acetonitrile). After elution, compound retention and void volume times were obtained from the chromatogram. The IAM capacity factor: (KIAM) was calculated using the equation: […]
where tr is the retention time of a compound and t0 is the void volume time of the column. To predict CNS permeability, we used the correlation described by the formula below.

Human AChE = molecular target: T2, Human AChE (Homo sapiens, UniProt P22303); test: biochemical
T2 construct: purchased Sigma
T2 sequence (P22303 32-614): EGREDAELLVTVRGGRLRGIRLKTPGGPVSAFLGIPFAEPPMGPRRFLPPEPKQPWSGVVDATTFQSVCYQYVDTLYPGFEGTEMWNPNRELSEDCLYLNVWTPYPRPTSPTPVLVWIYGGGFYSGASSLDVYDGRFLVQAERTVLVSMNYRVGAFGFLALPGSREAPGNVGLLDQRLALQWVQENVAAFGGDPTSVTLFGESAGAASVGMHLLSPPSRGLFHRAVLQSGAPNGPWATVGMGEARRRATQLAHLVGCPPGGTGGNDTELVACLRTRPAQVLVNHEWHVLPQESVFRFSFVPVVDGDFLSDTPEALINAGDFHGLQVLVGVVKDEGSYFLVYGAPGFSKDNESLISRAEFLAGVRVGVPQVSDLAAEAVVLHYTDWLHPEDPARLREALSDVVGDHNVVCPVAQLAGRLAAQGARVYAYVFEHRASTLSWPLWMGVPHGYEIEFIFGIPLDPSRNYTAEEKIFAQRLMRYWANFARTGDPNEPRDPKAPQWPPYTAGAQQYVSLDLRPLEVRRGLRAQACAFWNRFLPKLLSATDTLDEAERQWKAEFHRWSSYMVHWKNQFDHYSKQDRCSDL
Procedure: This acetylcholinesterase (AChE) assay is based on an Amplex Red assay kit (Thermo Fisher A12217). Human AChE (Sigma) was used. Briefly, 5 μL of compounds at the desired concentration were loaded into wells of a 384-well plate. Then, 5 μl of human AChE (30 mU/mL) was loaded into each well, followed by the addition of 10 μL of the working solution which contains 400 μM Amplex Red reagent, 2 U/mL HRP, 0.2 U/mL choline oxidase, and 100 μM acetylcholine. The reaction was monitored for 60 minutes and read at 530/590 nm. AChE IC50 was determined by plotting AChE activity as a percentage of DMSO control using GraphPad Prism software.

SMILES | IC50 (human nSMase2; IC50 (nSMase2) Groups: A-D) | IC50 (Human AChE; AChE activity) | other results
C[C@@]12CCO[C@@H]1Nc1cccnc12 | > 50 µM |  | 
COc1cccc(NC(=O)Oc2ccc3c(c2)[C@]2(C)CCO[C@@H]2N3C)c1 [Compound 3] |  |  | fraction unbound [1]: 0.1; CNS perm (PAMPA) [2]: 2.3; IC50 (Human AChE; IC50 AChE): 0.1 µM
CN1c2ccc(OC(=O)Nc3ccncc3F)cc2[C@]2(C)CCO[C@H]12 [Compound 13] |  |  | degree of binding to human serum albumin (HSA) [1]: low degree of binding; fraction unbound [1]: 0.35; IC50 (human nSMase2; IC50 nSMase2): 0.6 µM; CNS perm (PAMPA) ([2]; PAMPA, 2 mM): 1.3; IC50 (Human AChE; IC50 AChE): > 5 µM
COc1ccc(NC(=O)Oc2ccc3c(c2)[C@]2(C)CCO[C@@H]2N3C)cc1 [Compound 2] |  |  | fraction unbound [1]: 0.15; IC50 (human nSMase2; IC50 nSMase2): 0.7 µM; CNS perm (PAMPA) [2]: 2; IC50 (Human AChE; IC50 AChE): 3.6 µM
CN1c2ccc(OC(=O)Nc3ccc(C(F)(F)F)cc3)cc2[C@]2(C)CCO[C@H]12 [Compound 15] |  |  | fraction unbound [1]: 0.07; CNS perm (PAMPA) ([2]; PAMPA, 2 mM): 2.2; IC50 (Human AChE; IC50 AChE): > 5 µM
CN1c2ccc(OC(=O)Nc3ccc(OC(F)(F)F)cc3)cc2[C@]2(C)CCO[C@H]12 [drawing 35] | 10 to 50 µM | > 5 µM | 
COc1ccc(NC(=O)Oc2ccc3c(c2)[C@]2(C)CCO[C@@H]2N3C)cc1 [drawing 33] | 1 to 10 µM | 2.5 to 5 µM | 
COc1ccnc2c1N[C@H]1OCC[C@@]21C | > 50 µM |  | 
COc1ccc2c(n1)[C@]1(C)CCCO[C@@H]1N2 | > 50 µM |  | 
CN1c2ccc(OC(=O)Nc3ccccn3)cc2[C@]2(C)CCO[C@H]12 [Compound 12] |  |  | degree of binding to human serum albumin (HSA) [1]: low degree of binding; fraction unbound [1]: 0.28; IC50 (human nSMase2; IC50 nSMase2): 0.8 µM; CNS perm (PAMPA) [2]: 1.9; IC50 (Human AChE; IC50 AChE): > 5 µM
CN1c2ccc(OCc3ccccc3)nc2[C@]2(C)CCO[C@H]12 | > 50 µM |  | 
CCN1c2ccc(O)nc2[C@]2(C)CCO[C@H]12 | 1 to 10 µM |  | 
C[C@@]12CCO[C@@H]1Nc1ncccc12 | > 50 µM |  | 
CN1c2ccc(O)nc2[C@]2(C)CCO[C@H]12 | 1 to 10 µM |  | 
COc1ccc2c(n1)[C@]1(c3ccccc3)CCO[C@@H]1N2 | > 50 µM |  | 
COC(=O)N1CCC[C@@]2(C)c3nc(OC)ccc3N[C@@H]12 | > 50 µM |  | 
CN1c2ccc(OC(=O)Nc3cncc(F)c3)cc2[C@]2(C)CCO[C@H]12 [drawing 63] | < 1 µM | > 5 µM | 
CN1c2ccc(OC(=O)NC3CCCCC3)cc2[C@]2(C)CCO[C@H]12 [drawing 36] | 1 to 10 µM | < 0.5 µM | 
C=CC[C@@]12CCO[C@@H]1Nc1ccc(OC)nc12 | > 50 µM |  | 
CC[C@H]1C[C@@]2(C)c3cc(OC(=O)Nc4ccccc4)ccc3N(C)[C@H]2O1 [Compound 9] |  |  | fraction unbound [1]: 0.07; IC50 (human nSMase2; IC50 nSMase2): > 5 µM; CNS perm (PAMPA) [2]: 3; IC50 (Human AChE; IC50 AChE): 2.5 µM
CCN(C)C(=O)Oc1ccc2c(c1)[C@]1(C)CCO[C@@H]1N2C [Compound 16] |  |  | IC50 (Human AChE; IC50 AChE, Table 2, unit not in table, μM): > 5 µM
COc1ccc2c(n1)[C@]1(C)CCO[C@@H]1N2 | > 50 µM |  | 
CC[C@@H]1C[C@@]2(C)c3cc(OC(=O)Nc4ccccc4)ccc3N(C)[C@H]2O1 [drawing 43] | 1 to 10 µM | 2.5 to 5 µM | 
COc1cnc2c(c1)[C@]1(C)CCO[C@@H]1N2 | > 50 µM |  | 
C=CC[C@@]12CCN(S(=O)(=O)c3ccc(C)cc3)[C@@H]1Nc1ccc(OC)nc12 | > 50 µM |  | 

SMILES | IC50 (human nSMase2; IC50 (nSMase2) Groups: A-D) | IC50 (Human AChE; AChE activity) | other results
COc1nccc2c1N[C@H]1OCC[C@@]21C | > 50 µM |  | 
COc1cccc(NC(=O)Oc2ccc3c(c2)[C@]2(C)CCO[C@@H]2N3C)c1 [drawing 34] | 1 to 10 µM | < 0.5 µM | 
CN1c2ccc(OC(=O)Nc3cncc(F)c3)cc2[C@]2(C)CCO[C@H]12 [Compound 14] |  |  | fraction unbound [1]: 0.21; IC50 (human nSMase2; IC50 nSMase2): 0.9 µM; CNS perm (PAMPA) [2]: 2; IC50 (Human AChE; IC50 AChE): > 5 µM
COc1cc(NC(=O)Oc2ccc3c(c2)[C@]2(C)CCO[C@@H]2N3C)cc(OC)c1 [Compound 7] |  |  | fraction unbound [1]: 0.09; IC50 (human nSMase2; IC50 nSMase2): 2 µM; CNS perm (PAMPA) [2]: 1.8; IC50 (Human AChE; IC50 AChE): 0.3 µM
CN1c2ccc(OC(=O)NC3CCCCC3)cc2[C@]2(C)CCO[C@H]12 [Compound 5] |  |  | fraction unbound [1]: 0.17; IC50 (human nSMase2; IC50 nSMase2): 3.4 µM; CNS perm (PAMPA) [2]: 2.8; IC50 (Human AChE; IC50 AChE): 0.3 µM
CN1c2ccc(OC(=O)Nc3ccncc3)cc2[C@]2(C)CCO[C@H]12 (racemic) |  | > 5 µM | 
CN1c2ccc(OC(=O)Nc3ccncc3F)cc2[C@]2(C)CCO[C@H]12 [drawing 62] | < 1 µM | > 5 µM | 
CCN1c2ccc(OCc3ccccc3)nc2[C@]2(C)CCO[C@H]12 | > 50 µM |  | 
COc1ccc2c(n1)[C@]1(C)CCN(S(=O)(=O)c3ccc(C)cc3)[C@@H]1N2 | 10 to 50 µM |  | 
CN1c2ccc(OC(=O)Nc3ccccc3)cc2[C@]2(C)CCO[C@H]12 [drawing 32] | 1 to 10 µM | < 0.5 µM | 
CN1CC[C@@]2(C)c3cc(OC(=O)Nc4ccccc4)ccc3N(C)[C@@H]12 [phenserine, reference compound] |  |  | IC50 (human nSMase2; nSMase2 IC50): > 50 µM
CN1c2ccc(OC(=O)Nc3ccc(C(F)(F)F)cc3)cc2[C@]2(C)CCO[C@H]12 [drawing 64] | 1 to 10 µM | > 5 µM | 
C[C@@]12CCO[C@@H]1Nc1ccc(Br)nc12 | > 50 µM |  | 
CCN(C)C(=O)Oc1ccc2c(c1)[C@]1(C)CCO[C@@H]1N2C [drawing 65] |  | > 5 µM | 
CN1c2ccc(OC(=O)Nc3ccccc3)cc2[C@]2(C)CCO[C@H]12 [Compound 1, phensvenine] |  |  | fraction unbound [1]: 0.12; nSMase2 inhibitory activity (human nSMase2): has nSMase2 inhibitory activity; also recorded: weak nSMase2 inhibition; IC50 (human nSMase2; IC50 nSMase2): > 1 µM; CNS perm (PAMPA) [2]: 3.2; IC50 (Human AChE; AChE IC50): 0.5 µM
C[C@@]12CCO[C@@H]1Nc1ccc(O)nc12 | > 50 µM |  | 
C[C@@]12CCO[C@@H]1Nc1ccc(Cl)nc12 | > 50 µM |  | 
CN1c2ccc(OC(=O)Nc3ccccc3)nc2[C@]2(C)CCO[C@H]12 | 1 to 10 µM |  | 
CC[C@H]1C[C@@]2(C)c3cc(OC(=O)Nc4ccccc4)ccc3N(C)[C@H]2O1 [drawing 42] | 1 to 10 µM | 2.5 to 5 µM | 
CN1c2ccc(OC(=O)Nc3ccccn3)cc2[C@]2(C)CCO[C@H]12 [drawing 45] | < 1 µM | > 5 µM | 
C[C@@]12CCO[C@@H]1Nc1ccc(OCc3ccccc3)nc12 | > 50 µM |  | 
Cc1cc(C)cc(NC(=O)Oc2ccc3c(c2)[C@]2(C)CCO[C@@H]2N3C)c1 [drawing 37] | 1 to 10 µM | < 0.5 µM | 
COc1cc(NC(=O)Oc2ccc3c(c2)[C@]2(C)CCO[C@@H]2N3C)cc(OC)c1 [drawing 38] | 1 to 10 µM | < 0.5 µM | 
CC[C@@H]1C[C@@]2(C)c3cc(OC(=O)Nc4ccccc4)ccc3N(C)[C@H]2O1 [Compound 10] |  |  | fraction unbound [1]: 0.05; CNS perm (PAMPA) [2]: 3.2; IC50 (Human AChE; IC50 AChE): 3.7 µM
